These results are taken from publication PMC7213079, “Hit Identification of New Potent PqsR Antagonists as Inhibitors of Quorum Sensing in Planktonic and Biofilm Grown Pseudomonas aeruginosa” (Frontiers in Chemistry, 2020).

The subject of assay [1] is PA14 mCTX::PpqsA-lux. Briefly: PpqsA-lux bioreporter assay, strain PA14. The assay is classed as cell-based, Pseudomonas aeruginosa. The note with it: Pseudomonas aeruginosa, PA14, read-out: IC50 PA14. An excerpt:
To inform the structural variation of 7, crystal structures with the endogenous ligand [4-hydroxy-2-heptylquinoline (NHQ)] and the inhibitor M64 were used (Ilangovan et al., [2013]; Kitao et al., [2018]). The PqsR LBD is dominated by lipophilic interactions, therefore the current SAR exploration mainly focused on varying the aromatic tail substituents and examining the effect of 8-position substitution. The rationale for these modifications was primarily based on molecular docking studies that provided insights into the mode of binding of 7 and approaches intended to improve potency. The substituent at the para- position of the aromatic ring appeared to be crucial for biological activity due to the vital π-π stacking interaction of this group with Tyr^258. […] These strains emit light upon activation of PqsR by the endogenous production of these signal molecules. […] The results of the SAR in this assay highlight the importance of testing any prospective anti-virulence strategy on multiple genetically distinct P. aeruginosa strains as a means to reduce the chance of failure at both pre-clinical and clinical stages (Freschi et al., [2015]). […]
PA14 mCTX::PpqsA-lux PA14 with chromosomal mini-CTX::PpqsA-lux (Soukarieh insertion; TcR et al., 2018) […]
mini-CTX::PpqsA-lux R6K-based mini-CTX suicide plasmid for the (Diggle et chromosomal insertion of a PpqsA-lux al., 2007) transcriptional reporter fusion; TcR
Biosensor reporter assay:
Strains PA14 mCTX::PpqsA-lux and PAO1-L mCTX::PpqsA-lux were constructed using plasmid mini-CTX::PpqsA-lux as previously described (Diggle et al., 2007) and the assay was performed according to published procedures (Fletcher et al., 2007). For screening, the compounds were tested at 10 µM concentration which was prepared from 10 mM stock in DMSO. […]

Assay [2] has as its system PAO1-L. In words: AQ (HHQ, PQS) quantification by LC-MS/MS in planktonic cultures, PAO1-L. The note with it: 3 x IC50. Format: cell-based, Pseudomonas aeruginosa. The procedure:
Since PqsR controls expression of the pqsABCDE operon encoding the enzymes required for different stages of AQ biosynthesis, quantification of HHQ, and PQS provides a direct measurement for inhibition of the biosynthetic pathway. Compound 40 was evaluated for its effect on AQ biosynthesis at a concentration three times the corresponding IC50 values for PAO1-L and PA14.
Figure 5 Effect of compound 40 on AQ production: Quantification of AQ concentrations after treatment with the PqsR inhibitor 40 at 3x IC50 value for PAO1-L and PA14 each strain. The graph represents the average of three independent experiments carried out in triplicate (n = 9) for both strains.
For each test sample, 100µl of sterile filtered supernatant (the same preparation as for pyocyanin) was spiked with 10µl of an internal standard solution (10µM d4-PQS in MeOH), and diluted with water to a total volume of 500µl. […]
screening of the LC eluent for specific AQ analytes. Where chromatographic peaks for HHQ and PQS were detected, a peak area was determined and analyte peak area/internal standard peak area calculated.
AQ quantification in biofilm cultures: […]
For this experiment, the P. aeruginosa PAO1-L strain and M9 minimal medi um were used. […] The supernatant was col lected and the AQ extraction and quantification were performed following the LC MS/MS protocol described above . […]

Turning to `Cn1c2ccccc2c2nnc(SCC(=O)Nc3ccc(Oc4ccccn4)cc3)nc21` [Compound 40, 2-((5-Methyl-5H-[1,2,4]triazino[5,6-b]indol-3-yl)thio)-N-(4-(pyridin-2-yloxy)phenyl)acetamide], the IC50 in assay [1] was 340 ± 30 nM. Besides, the “production of HHQ and PQS” value in assay [2] is “substantially reduce”.

In general, IC50 refers to the concentration at which inhibition is half-maximal.
